Measured values reported in patent publication US20230123334A1, “AMINO LIPID COMPOUND, PREPARATION METHOD THEREFOR, AND APPLICATION THEREOF” (SHENZHEN SHENXIN BIOTECHNOLOGY CO., LTD., priority 2020, published 2023).

Columns and labels:
HEK293 cells [1] = assay: Preliminary screening as DNA vectors, GFP transfection of HEK293 cells; type: cell-based; details: HEK293 cells; lipid/DOPE liposome with 75 ng plasmid DNA (psin-EGFP-IRES-Puro); number of cells expressing GFP divided by total number of nuclei (Hoechst)
Procedure, shortened: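 Lipid + DOPE liposomes (NaOAc, pH 5.6) complexed w/ 75 ng psin-EGFP-IRES-Puro, 30 min RT; added to 3-5×10^4 HEK293/well, 37° C. Hoechst 0.2 μg/mL at 20-24 h, imaged after further 20-24 h. Efficiency = GFP+ cells / total nuclei.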

HEK293 cells [2] = assay: Preliminary screening as mRNA vectors, EGFP mRNA transfection of HEK293 cells; type: cell-based; details: HEK293 cells, 96-well plates, EGFP mRNA 50 ng per well; percentage of GFP fluorescent cells relative to total number of cells (Hoechst)
Procedure, shortened: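 Each well of HEK293 cells received 50 ng of EGFP mRNA. Efficiency was expressed as percent GFP-expressing cells over Hoechst-defined total cell number.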

Compound | Absolute DNA transfection efficiency in HEK293 cells (HEK293 cells [1]) [%] | Absolute mRNA transfection efficiency in HEK293 cells (HEK293 cells [2]) [%]
CCCCCCCCCCCCCCCCCCNc1nc(NCCCCCCCCCCCC)nc(NCCCN2CCOCC2)n1 [Compound N12N18D8] | 1.5 | 0.5
CCCCCCCCCCCCCCCCCCNc1nc(NCCCCCCCCCCCC)nc(NCCCN2CCN(C)CC2)n1 [Compound N12N18D9] | 0.1 | 0.7
CCCCCCCCCCCCCCCCCCNc1nc(NCCCCCCCCCCCC)nc(NCC2CCN(C)CC2)n1 [Compound N12N18D10] | 0.0 | 1.0
CCCCCCCCCCCCCNc1nc(NCCCCCCCCCCCCC)nc(NCCN(C)C)n1 [Compound N13N13D1] | 1.5 | 0.4
CCCCCCCCCCCCCNc1nc(NCCCCCCCCCCCCC)nc(NCCN2CCOCC2)n1 [Compound N13N13D2] | 0.0 | 0.9
CCCCCCCCCCCCCNc1nc(NCCCCCCCCCCCCC)nc(NCCN2CCCC2)n1 [Compound N13N13D3] | 0.7 | 3.5
CCCCCCCCCCCCCNc1nc(NCCCCCCCCCCCCC)nc(NCCN2CCCCC2)n1 [Compound N13N13D4] | 1.5 | 3.3
CCCCCCCCCCCCCNc1nc(NCCCCCCCCCCCCC)nc(NCCN2CCN(C)CC2)n1 [Compound N13N13D5] | 0.9 | 1.7
CCCCCCCCCCCCCNc1nc(NCCCCCCCCCCCCC)nc(NCCCN(C)C)n1 [Compound N13N13D6] | 2.5 | 0.2
CCCCCCCCCCCCCNc1nc(NCCCCCCCCCCCCC)nc(NCCN(CC)CC)n1 [Compound N13N13D7] | 0.1 | 1.1
CCCCCCCCCCCCCNc1nc(NCCCCCCCCCCCCC)nc(NCCCN2CCOCC2)n1 [Compound N13N13D8] | 1.4 | 0.3
CCCCCCCCCCCCCNc1nc(NCCCCCCCCCCCCC)nc(NCCCN2CCN(C)CC2)n1 [Compound N13N13D9] | 1.1 | 0.2
CCCCCCCCCCCCCNc1nc(NCCCCCCCCCCCCC)nc(NCC2CCN(C)CC2)n1 [Compound N13N13D10] | 0.3 | 2.9
CCCCCCCCCCCCCCCNc1nc(NCCCCCCCCCCCCC)nc(NCCN(C)C)n1 [Compound N13N15D1] | 1.5 | 1.4
CCCCCCCCCCCCCCCNc1nc(NCCCCCCCCCCCCC)nc(NCCN2CCOCC2)n1 [Compound N13N15D2] | 0.0 | 1.4
CCCCCCCCCCCCCCCNc1nc(NCCCCCCCCCCCCC)nc(NCCN2CCCC2)n1 [Compound N13N15D3] | 1.4 | 4.7
CCCCCCCCCCCCCCCNc1nc(NCCCCCCCCCCCCC)nc(NCCN2CCCCC2)n1 [Compound N13N15D4] | 0.0 | 0.0
CCCCCCCCCCCCCCCNc1nc(NCCCCCCCCCCCCC)nc(NCCN2CCN(C)CC2)n1 [Compound N13N15D5] | 0.2 | 0.8
CCCCCCCCCCCCCCCNc1nc(NCCCCCCCCCCCCC)nc(NCCCN(C)C)n1 [Compound N13N15D6] | 0.3 | 0.0
CCCCCCCCCCCCCCCNc1nc(NCCCCCCCCCCCCC)nc(NCCN(CC)CC)n1 [Compound N13N15D7] | 0.8 | 3.7
CCCCCCCCCCCCCCCNc1nc(NCCCCCCCCCCCCC)nc(NCCCN2CCOCC2)n1 [Compound N13N15D8] | 0.0 | 0.0

Compound | Absolute DNA transfection efficiency in HEK293 cells (HEK293 cells [1]) [%] | Absolute mRNA transfection efficiency in HEK293 cells (HEK293 cells [2]) [%]
CCCCCCCCCCCCCCCNc1nc(NCCCCCCCCCCCCC)nc(NCCCN2CCN(C)CC2)n1 [Compound N13N15D9] | 0.2 | 0.5
CCCCCCCCCCCCCCCNc1nc(NCCCCCCCCCCCCC)nc(NCC2CCN(C)CC2)n1 [Compound N13N15D10] | 0.0 | 0.4
CCCCCCCCCCCCCCCCNc1nc(NCCCCCCCCCCCCC)nc(NCCN(C)C)n1 [Compound N13N16D1] | 0.8 | 1.5
CCCCCCCCCCCCCCCCNc1nc(NCCCCCCCCCCCCC)nc(NCCN2CCOCC2)n1 [Compound N13N16D2] | 0.0 | 1.4
CCCCCCCCCCCCCCCCNc1nc(NCCCCCCCCCCCCC)nc(NCCN2CCCC2)n1 [Compound N13N16D3] | 0.4 | 1.6
CCCCCCCCCCCCCCCCNc1nc(NCCCCCCCCCCCCC)nc(NCCN2CCCCC2)n1 [Compound N13N16D4] | 1.0 | 4.0
CCCCCCCCCCCCCCCCNc1nc(NCCCCCCCCCCCCC)nc(NCCN2CCN(C)CC2)n1 [Compound N13N16D5] | 0.0 | 0.4
CCCCCCCCCCCCCCCCNc1nc(NCCCCCCCCCCCCC)nc(NCCCN(C)C)n1 [Compound N13N16D6] | 1.0 | 3.8
CCCCCCCCCCCCCCCCNc1nc(NCCCCCCCCCCCCC)nc(NCCN(CC)CC)n1 [Compound N13N16D7] | 1.5 | 0.6
CCCCCCCCCCCCCCCCNc1nc(NCCCCCCCCCCCCC)nc(NCCCN2CCOCC2)n1 [Compound N13N16D8] | 0.0 | 3.3
CCCCCCCCCCCCCCCCNc1nc(NCCCCCCCCCCCCC)nc(NCCCN2CCN(C)CC2)n1 [Compound N13N16D9] | 0.0 | 1.4
CCCCCCCCCCCCCCCCNc1nc(NCCCCCCCCCCCCC)nc(NCC2CCN(C)CC2)n1 [Compound N13N16D10] | 0.0 | 1.1
CCCCCCCCCCCCCCCCCCNc1nc(NCCCCCCCCCCCCC)nc(NCCN(C)C)n1 [Compound N13N18D1] | 2.7 | 13.8
CCCCCCCCCCCCCCCCCCNc1nc(NCCCCCCCCCCCCC)nc(NCCN2CCOCC2)n1 [Compound N13N18D2] | 0.2 | 0.0
CCCCCCCCCCCCCCCCCCNc1nc(NCCCCCCCCCCCCC)nc(NCCN2CCCC2)n1 [Compound N13N18D3] | 0.5 | 21.5
CCCCCCCCCCCCCCCCCCNc1nc(NCCCCCCCCCCCCC)nc(NCCN2CCCCC2)n1 [Compound N13N18D4] | 1.8 | 3.1
CCCCCCCCCCCCCCCCCCNc1nc(NCCCCCCCCCCCCC)nc(NCCN2CCN(C)CC2)n1 [Compound N13N18D5] | 0.2 | 0.7
CCCCCCCCCCCCCCCCCCNc1nc(NCCCCCCCCCCCCC)nc(NCCCN(C)C)n1 [Compound N13N18D6] | 3.0 | 14.7
CCCCCCCCCCCCCCCCCCNc1nc(NCCCCCCCCCCCCC)nc(NCCN(CC)CC)n1 [Compound N13N18D7] | 3.7 | 1.3
CCCCCCCCCCCCCCCCCCNc1nc(NCCCCCCCCCCCCC)nc(NCCCN2CCOCC2)n1 [Compound N13N18D8] | 0.0 | 0.0
